Experiment: Sodium perborate tetrahydrate solubility tests in fresh water
Type: physicochemical
Conditions: density 8.33 pounds per gallon, 75° F., with mixing; for Amount Dissolved (solubility of sodium perborate tetrahydrate in water): 10% by weight of water was a pass/fail target, not the maximum solubility
Protocol: Sodium perborate tetrahydrate solubility tests in fresh water having a density of 8.33 pounds per gallon were conducted. […] The sodium borate tetrahydrate-complex or ester forming compound mixtures all contained a molar ratio of sodium perborate tetrahydrate to the complex or ester forming compound of 1:2, and the mixtures were added to the water in amounts whereby the sodium perborate tetrahydrate was present in an amount of 10% by weight of the water.

In the case of O.O.O.O.[Na+].[O-]B1OO1 [Sodium Perborate Tetrahydrate], the “Amount Dissolved (solubility of sodium perborate tetrahydrate in water)” value is reported as 2.5% by weight of water, the “Amount Dissolved (solubility of sodium perborate tetrahydrate in water)” value (listed as sodium perborate tetrahydrate) is reported as 2.5 % by weight of water and the “Time Required” value (time to dissolve the stated amount) is reported as under 15 min.
